# Source: ChEMBL document CHEMBL1132500, “Structure and antimalarial activity of adducts of 11-azaartemisinin with conjugated terminal acetylenes” (Bioorg Med Chem Lett, 1999)
# Columns and labels:
# [1] = tested on: Plasmodium falciparum; experiment: Antimalarial activity against Plasmodium falciparum W2 clone as relative IC50 to artemisinin; assay type: functional
# [2] = tested on: Plasmodium falciparum; experiment: Antimalarial activity against Plasmodium falciparum D6 as IC50 relative to artemisinin; assay type: functional
# [3] = tested on: Plasmodium falciparum; experiment: Inhibitory activity against Plasmodium falciparum W2; assay type: functional, organism-based
# [4] = tested on: Plasmodium falciparum; experiment: Inhibitory activity against Plasmodium falciparum D6; assay type: functional, organism-based
SMILES,IC50 ratio [1],IC50 ratio [2],IC50 [3] [ng/mL],IC50 [4] [ng/mL]
CC(=O)/C=C/N1C(=O)[C@H](C)[C@@H]2CC[C@@H](C)[C@@H]3CC[C@]4(C)OO[C@]32[C@H]1O4,1.25,2.54,,
COC(=O)/C=C/N1C(=O)[C@H](C)[C@@H]2CC[C@@H](C)[C@@H]3CC[C@]4(C)OO[C@]32[C@H]1O4,1.2,2,,
C[C@@H]1CC[C@H]2[C@@H](C)C(=O)N(/C=C/C(=O)N(C)C)[C@@H]3O[C@]4(C)CC[C@@H]1[C@@]23OO4,0.35,0.39,,
C[C@@H]1CC[C@H]2[C@@H](C)C(=O)O[C@@H]3O[C@@]4(C)CC[C@@H]1[C@]32OO4 [ARTEMISININ],,,1.15,4.19
